# Measurements as given in PMC11003488 (Journal of Enzyme Inhibition and Medicinal Chemistry, 2023).
# “And” between values parts separate entries of the source, which are not always exact repeats. Equal values may be shown once.
# Tests used:
# Bcl-2 = test: Gene expression by RT-qPCR in HCT-116; conditions: HCT-116, 24 h, IC50 of compound; vs 0.1% DMSO; 2^-ΔΔct
# HCT-116 (colon cancer) [1] = test: Cell cycle analysis by PI flow cytometry; type: cell-based, human; conditions: HCT-116, 24 h, IC50 of compound
# Bax [2] = test: Protein level by ELISA assay in HCT-116; type: cell-based, human; conditions: HCT-116, IC50 of compound, 24 h, vs 0.1% DMSO
# HCT-116 (colon cancer) [3] = test: Apoptosis AV/PI assay by flow cytometry; type: cell-based, human; conditions: HCT-116, 24 h, IC50 of compound
# Caspase-3 [4] = test: Gene expression by RT-qPCR in HCT-116; conditions: HCT-116, 24 h, IC50 of compound; vs 0.1% DMSO; 2^-ΔΔct
# Cyt-c = test: Gene expression by RT-qPCR in HCT-116; conditions: HCT-116, 24 h, IC50 of compound; vs 0.1% DMSO; 2^-ΔΔct
# TNF-α = test: Gene expression by RT-qPCR in HCT-116; conditions: HCT-116, 24 h, IC50 of compound; vs 0.1% DMSO; 2^-ΔΔct
# Bax [5] = test: Gene expression by RT-qPCR in HCT-116; conditions: HCT-116, 24 h
# Caspase-3 [6] = test: Protein level by ELISA assay in HCT-116; type: cell-based, human; conditions: HCT-116, IC50 of compound, 24 h, vs 0.1% DMSO
# NCI/ADR-RES = conditions: NCI Data NSC: 800934 ref 41; cited from earlier work
# Melanoma cell lines = conditions: read-out: MG-MID GI50; Melanoma subpanel; NCI Data NSC: 800934; cited from earlier work
# Breast cancer cell lines = conditions: read-out: MG-MID GI50; Breast Cancer subpanel; NCI Data NSC: 800934; cited from earlier work
# CNS cancer cell lines = conditions: read-out: MG-MID GI50; CNS Cancer subpanel; NCI Data NSC: 800934; cited from earlier work
# HCT-15 = conditions: NCI Data NSC: 800934 ref 41; cited from earlier work
# PC-3 = conditions: NCI Data NSC: 800934 ref 41; cited from earlier work
# U251 = conditions: NCI Data NSC: 800934 ref 41; cited from earlier work
# [7] = system: NCI 60-cell line panel (full panel); conditions: read-out: Full panel MG-MID GI50, NCI Data NSC: 800934; cited from earlier work
# [8] = system: Ovarian cancer cell lines; conditions: read-out: MG-MID GI50; Ovarian Cancer subpanel; NCI Data NSC: 800934; cited from earlier work
# UO-31 = conditions: NCI Data NSC: 800934 ref 41; cited from earlier work
# MCF7 = conditions: NCI Data NSC: 800934 ref 41; cited from earlier work
# HS 578 T = conditions: NCI Data NSC: 800934 ref 41; cited from earlier work
# SK-OV-3 = conditions: NCI Data NSC: 800934 ref 41; cited from earlier work
# NCI-H460 = conditions: NCI Data NSC: 800934 ref 41; cited from earlier work
# MALME-3M = conditions: NCI Data NSC: 800934 ref 41; cited from earlier work
# NCI-H226 = conditions: NCI Data NSC: 800934 ref 41; cited from earlier work
# NCI-H23 = conditions: NCI Data NSC: 800934 ref 41; cited from earlier work
# IGROV1 = conditions: NCI Data NSC: 800934 ref 41; cited from earlier work
# HCC-2998 = conditions: NCI Data NSC: 800934 ref 41; cited from earlier work
# KM12 = conditions: NCI Data NSC: 800934 ref 41; cited from earlier work
# HL-60(TB) = conditions: NCI Data NSC: 800934 ref 41; cited from earlier work
# NSCLC cell lines = conditions: read-out: MG-MID GI50; NSCLC subpanel; NCI Data NSC: 800934; cited from earlier work
# T-47D = conditions: NCI Data NSC: 800934 ref 41; cited from earlier work
# SR = conditions: NCI Data NSC: 800934 ref 41; cited from earlier work
# HT29 = conditions: NCI Data NSC: 800934 ref 41; cited from earlier work
# OVCAR-3 = conditions: NCI Data NSC: 800934 ref 41; cited from earlier work
# SNB-19 = conditions: NCI Data NSC: 800934 ref 41; cited from earlier work
# Colon cancer cell lines = conditions: read-out: MG-MID GI50; Colon Cancer subpanel; NCI Data NSC: 800934; cited from earlier work
# MDA-MB-435 = conditions: NCI Data NSC: 800934 ref 41; cited from earlier work
# A498 = conditions: NCI Data NSC: 800934 ref 41; cited from earlier work
# A549/ATCC = conditions: NCI Data NSC: 800934 ref 41; cited from earlier work
# SK-MEL-28 = conditions: NCI Data NSC: 800934 ref 41; cited from earlier work
# CCRF-CEM = conditions: NCI Data NSC: 800934 ref 41; cited from earlier work
# BT-549 = conditions: NCI Data NSC: 800934 ref 41; cited from earlier work
# SW-620 = conditions: NCI Data NSC: 800934 ref 41; cited from earlier work
# [9] = system: Prostate cancer cell lines; conditions: read-out: MG-MID GI50; Prostatic Cancer subpanel; NCI Data NSC: 800934; cited from earlier work
# Leukaemia cell lines = conditions: read-out: MG-MID GI50; leukaemia subpanel; NCI Data NSC: 800934; cited from earlier work
# OVCAR-5 = conditions: NCI Data NSC: 800934 ref 41; cited from earlier work
# SN12C = conditions: NCI Data NSC: 800934 ref 41; cited from earlier work
# OVCAR-4 = conditions: NCI Data NSC: 800934 ref 41; cited from earlier work
# RXF 393 = conditions: NCI Data NSC: 800934 ref 41; cited from earlier work
# LOX IMVI = conditions: NCI Data NSC: 800934 ref 41; cited from earlier work
# SF-295 = conditions: NCI Data NSC: 800934 ref 41; cited from earlier work
# HOP-62 = conditions: NCI Data NSC: 800934 ref 41; cited from earlier work
# SF-268 = conditions: NCI Data NSC: 800934 ref 41; cited from earlier work
# EKVX = conditions: NCI Data NSC: 800934 ref 41; cited from earlier work
# SK-MEL-2 = conditions: NCI Data NSC: 800934 ref 41; cited from earlier work
# ACHN = conditions: NCI Data NSC: 800934 ref 41; cited from earlier work
# MOLT-4 = conditions: NCI Data NSC: 800934 ref 41; cited from earlier work
# SNB-75 = conditions: NCI Data NSC: 800934 ref 41; cited from earlier work
# COLO 205 = conditions: NCI Data NSC: 800934 ref 41; cited from earlier work
# CAKI-1 = conditions: NCI Data NSC: 800934 ref 41; cited from earlier work
# DU-145 = conditions: NCI Data NSC: 800934 ref 41; cited from earlier work
# Renal cancer cell lines = conditions: read-out: MG-MID GI50; Renal Cancer subpanel; NCI Data NSC: 800934; cited from earlier work
# SF-539 = conditions: NCI Data NSC: 800934 ref 41; cited from earlier work
# 786-0 = conditions: NCI Data NSC: 800934 ref 41; cited from earlier work
# M14 = conditions: NCI Data NSC: 800934 ref 41; cited from earlier work
# NCI-H322M = conditions: NCI Data NSC: 800934 ref 41; cited from earlier work
# TK-10 = conditions: NCI Data NSC: 800934 ref 41; cited from earlier work
# NCI-H522 = conditions: NCI Data NSC: 800934 ref 41; cited from earlier work
# UACC-257 = conditions: NCI Data NSC: 800934 ref 41; cited from earlier work
# OVCAR-8 = conditions: NCI Data NSC: 800934 ref 41; cited from earlier work
# UACC-62 = conditions: NCI Data NSC: 800934 ref 41; cited from earlier work
structure (smiles),measurement,setting,value
"COc1cccc2c1C(=O)c1c(O)c3c(c(O)c1C2=O)C[C@@](O)(C(=O)CO)C[C@@H]3O[C@H]1C[C@H](N)[C@H](O)[C@H](C)O1 [Doxorubicin, reference compound]",Bcl-2 gene expression fold change,Bcl-2,0.15 ± 0.03 fold
same,% G0-G1,HCT-116 (colon cancer) [1],55.35 ± 6.3%
same,% G2M,HCT-116 (colon cancer) [1],15.05 ± 6.7%
same,% S,HCT-116 (colon cancer) [1],18.68 ± 2.2%
same,% SubG0-G1,HCT-116 (colon cancer) [1],10.75 ± 2.3%
same,Bax protein level,Bax [2],1.86 fold
same,% Early apoptotic cells (LR),HCT-116 (colon cancer) [3],0.00 ± 0.0%
same,% Late apoptotic cells (UL),HCT-116 (colon cancer) [3],3.86 ± 0.66%
same,% Necrotic cells (UR),HCT-116 (colon cancer) [3],96.12 ± 14.1%
same,% Viable cells (LL),HCT-116 (colon cancer) [3],0.03 ± 0.001%
same,Caspase-3 gene expression fold change,Caspase-3 [4],0.75 ± 0.09 fold
same,Cyt-c gene expression fold change,Cyt-c,44.32 ± 4.3 fold
same,TNF-α gene expression fold change,TNF-α,2.33 fold and 2.33 ± 0.2 fold
same,Bax gene expression fold change,"Bax [5]; IC50 of compound, vs 0.1% DMSO, 2^-ΔΔct",0.31 ± 0.05 fold
same,Bax/Bcl-2 ratio,Bax [5]; ratio of gene expression fold changes,2
same,caspase-3 protein level,Caspase-3 [6],34.15 fold
CNC(=O)c1cc(Oc2ccc(NC(=O)Nc3ccc(Cl)c(C(F)(F)F)c3)cc2)ccn1 [Sorafenib],GI50,NCI/ADR-RES,3.16 µM
same,GI50,Melanoma cell lines,2.16 µM
same,GI50,Breast cancer cell lines,2.76 µM
same,GI50,CNS cancer cell lines,3.1 µM
same,GI50,HCT-15,2.51 µM
same,GI50,PC-3,1.99 µM
same,GI50,U251,3.16 µM
same,GI50,[7],2.76 µM
same,GI50,[8],3.27 µM
same,GI50,UO-31,3.16 µM
same,GI50,MCF7,2.51 µM
same,GI50,HS 578 T,3.16 µM
same,GI50,SK-OV-3,3.16 µM
same,GI50,NCI-H460,3.16 µM
same,GI50,MALME-3M,3.16 µM
same,GI50,NCI-H226,1.25 µM
same,GI50,NCI-H23,1.99 µM
same,GI50,IGROV1,3.16 µM
same,GI50,HCC-2998,3.16 µM
same,GI50,KM12,2.51 µM
same,GI50,HL-60(TB),0.63 µM
same,GI50,NSCLC cell lines,2.53 µM
same,GI50,T-47D,1.99 µM
same,GI50,SR,1.99 µM
same,GI50,HT29,2.51 µM
same,GI50,OVCAR-3,3.98 µM
same,GI50,SNB-19,5.01 µM
same,GI50,Colon cancer cell lines,2.68 µM
same,GI50,MDA-MB-435,1.99 µM
same,GI50,A498,3.16 µM
same,GI50,A549/ATCC,3.16 µM
same,GI50,SK-MEL-28,2.51 µM
same,GI50,CCRF-CEM,3.16 µM
same,GI50,BT-549,3.16 µM
same,GI50,SW-620,3.98 µM
same,GI50,[9],3.5 µM
same,GI50,Leukaemia cell lines,1.91 µM
same,GI50,OVCAR-5,3.16 µM
same,GI50,SN12C,3.16 µM
same,GI50,OVCAR-4,3.16 µM
same,GI50,RXF 393,3.98 µM
same,GI50,LOX IMVI,2.51 µM
same,GI50,SF-295,2.51 µM
same,GI50,HOP-62,2.51 µM
same,GI50,SF-268,3.98 µM
same,GI50,EKVX,3.16 µM
same,GI50,SK-MEL-2,1.25 µM
same,GI50,ACHN,3.16 µM
same,GI50,MOLT-4,2.51 µM
same,GI50,SNB-75,1.99 µM
same,GI50,COLO 205,2.51 µM
same,GI50,CAKI-1,3.16 µM
same,GI50,DU-145,5.01 µM
same,GI50,Renal cancer cell lines,3.46 µM
same,GI50,SF-539,1.99 µM
same,GI50,786-0,3.98 µM
same,GI50,M14,1.99 µM
same,GI50,NCI-H322M,3.98 µM
same,GI50,TK-10,3.98 µM
same,GI50,NCI-H522,1.99 µM
same,GI50,UACC-257,1.99 µM
same,GI50,OVCAR-8,3.16 µM
same,GI50,UACC-62,2.51 µM
